# From patent US20260199305A1, “LONG-ACTING ORAL PHARMACEUTICAL COMPRISING HYPOXIA-INDUCIBLE FACTOR PROLYL HYDROLASE INHIBITOR AND USE THEREOF” (Kind Pharmaceutical, priority 2023, published 2026)
# Read-outs that look alike come from different tables or passages of the source.
# Columns and labels:
# [1] = Phase 1 single-dose and multiple-dose pharmacokinetics in healthy volunteers; format: in vivo, Humans; conditions: for half-life / Tmax: human, oral; for Tmax: read-out: median Tmax
# Method: In a Phase 1, randomized, double-blind, placebo-controlled, single-dose and multiple-dose clinical study, a total of 46 healthy volunteers were assigned to one of six dose groups (1 mg, 4 mg, 10 mg, 20 mg, 30 mg, 50 mg) in a single-dose phase. In each dose group, 2 volunteers received a matching placebo. In the 1 mg dose group, 4 volunteers received a single dose of Comp-1 and in the remaining dose groups, 6 volunteers each received a single dose of Comp-1. Blood samples were collected from volunteers within 1 hour before dosing and at 0.5, 1, 1.5, 2, 3, 4, 5, 6, 7, 8, 10, 12, 24, 48, and 72 hours after dosing for pharmacokinetic (PK) analysis.
# A total of 32 healthy volunteers were assigned to one of four dose groups (4 mg, 10 mg, 20 mg, 30 mg) in a multiple-dose phase. In each dose group, 2 volunteers received a matching placebo and 6 volunteers received Comp-1 once daily for 10 consecutive days. Blood samples for PK analysis were collected from volunteers within 1 hour before dosing and at 0.5, 1, 1.5, 2, 3, 4, 5, 6, 7, 8, 10, 12, and 24 hours after dosing on the first dosing day (i.e., Day 1), as well as within 1 hour before dosing and at 0.5, 1, 2, 3, 4, 5, 6, 7, 8, 10, 12, 24, 48, and 72 hours after dosing on Days 6, 7, 8, and 10.
# Normal Mice = assay: Hemoglobin increase in normal mice, oral QD, TIW, QW; format: in vivo, C57BL/6J mice
# From the text: This experiment evaluated the effects of different dosing frequencies of the test compound Comp-1 at the same weekly dose on hemoglobin and various routine hematological parameters in male C57BL/6J mice.
# After acclimatization feeding, on Day 0, submandibular vein blood was collected from 92 male mice aged 6-8 weeks for routine hematological analysis. Based on the Day 0 Hb (hemoglobin) results, 80 mice were selected for use in this experiment and divided into groups as follows: Vehicle (QD, 5 mice), Comp-1 (4.5 mg/kg, QD, 5 mice), Comp-1 (10.5 mg/kg, TIW, 5 mice), Comp-1 (31.5 mg/kg, QW, 5 mice), Comp-1 (9 mg/kg, QD, 15 mice), Comp-1 (21 mg/kg, TIW, 15 mice), Comp-1 (63 mg/kg, QW, 15 mice), Comp-1 (15 mg/kg, QD, 5 mice), Comp-1 (35 mg/kg, TIW, 5 mice), and Comp-1 (105 mg/kg, QW, 5 mice). On Day 14 and Day 28, submandibular vein blood was collected for routine hematological analysis. Quantitative data results were analyzed statistically using one-way analysis of variance (ANOVA) between groups, followed by Dunnett's multiple comparison method. Two-tailed analysis was used for statistics, and the statistical significance level was set at P<0.05.
# [2] = after 10 consecutive days of dosing
# [3] = multiple-dose phase, after the first dose
# [4] = 4.5 mg/kg, QD, total weekly dose 31.5 mg/kg
# [5] = 9.0 mg/kg, QD, total weekly dose 63.0 mg/kg
# [6] = 10.5 mg/kg, TIW, total weekly dose 31.5 mg/kg
# [7] = 15.0 mg/kg, QD, total weekly dose 105.0 mg/kg
# [8] = 21.0 mg/kg, TIW, total weekly dose 63.0 mg/kg
# [9] = 31.5 mg/kg, QW, total weekly dose 31.5 mg/kg
# [10] = 35.0 mg/kg, TIW, total weekly dose 105.0 mg/kg
# [11] = 63.0 mg/kg, QW, total weekly dose 63.0 mg/kg
# [12] = 105.0 mg/kg, QW, total weekly dose 105.0 mg/kg
smiles,measurement,setting,value
"O=C(O)CNC(=O)C1=C(O)C2(CCCC2)n2c(ccc2-c2ccccc2)C1=O [Comp-1, (6′-hydroxy-8′-oxo-3′-phenyl-8′H-spiro[cyclopentane-1,5′-indolizine]-7′-carbonyl)glycine]","exposure (Css,max, AUC0-t, AUC0-t, and AUC0-inf)",[1]; [2],increased in a dose-proportional manner
same,mean clearance (CL/F),[1]; [2],no dose-related trend
same,half-life,"[1]; blood, after 10 consecutive days of once daily dosing, 4-30 mg, read-out: mean elimination half-life",12.4 to 15.8 h
same,Tmax,"[1]; blood, after 10 consecutive days of once daily dosing, 4-30 mg",3 to 4 h
same,half-life,"[1]; blood, multiple-dose phase, first dose on Day 1, 4-30 mg, read-out: mean half-life",10.1 to 19.4 h
same,Tmax,"[1]; blood, multiple-dose phase, first dose on Day 1, 4-30 mg",2 to 3 h
same,half-life,"[1]; in vivo, single-dose phase, 1-50 mg, healthy volunteers, read-out: mean elimination half-life (t½)",13.1 to 19.7 h
same,Tmax,"[1]; in vivo, single-dose phase, 1-50 mg, healthy volunteers",3 to 4.5 h
same,CLF,[1]; [3],no apparent trend with dose
same,"exposure (Cmax, AUC0-t, and AUC0-inf)",[1]; [3],increased with dose
same,"exposure (Cmax, AUC0-t, and AUC0-inf)",[1]; single-dose phase,increased in a dose-proportional manner
same,mean clearance (CL/F),[1]; single-dose phase,no dose-related trend
same,Hb Day 0,Normal Mice; [4],15.2 ± 0.61 g/dL
same,Hb Day 14,Normal Mice; [4],18.2 ± 0.52 g/dL
same,Hb Day 28,Normal Mice; [4],19.7 ± 0.53 g/dL
same,Hb Day 0,Normal Mice; [5],15.3 ± 0.51 g/dL
same,Hb Day 14,Normal Mice; [5],20.6 ± 0.44 g/dL
same,Hb Day 28,Normal Mice; [5],23.1 ± 0.80 g/dL
same,Hb Day 0,Normal Mice; [6],15.3 ± 0.66 g/dL
same,Hb Day 14,Normal Mice; [6],17.9 ± 0.54 g/dL
same,Hb Day 28,Normal Mice; [6],19.2 ± 0.22 g/dL
same,Hb Day 0,Normal Mice; [7],15.3 ± 0.48 g/dL
same,Hb Day 14,Normal Mice; [7],20.1 ± 0.54 g/dL
same,Hb Day 28,Normal Mice; [7],22.8 ± 0.29 g/dL
same,Hb Day 0,Normal Mice; [8],15.3 ± 0.49 g/dL
same,Hb Day 14,Normal Mice; [8],19.7 ± 0.77 g/dL
same,Hb Day 28,Normal Mice; [8],22.0 ± 0.11 g/dL
same,Hb Day 0,Normal Mice; [9],15.3 ± 0.48 g/dL
same,Hb Day 14,Normal Mice; [9],16.7 ± 0.40 g/dL
same,Hb Day 28,Normal Mice; [9],17.2 ± 0.52 g/dL
same,Hb Day 0,Normal Mice; [10],15.3 ± 0.44 g/dL
same,Hb Day 14,Normal Mice; [10],18.9 ± 0.11 g/dL
same,Hb Day 28,Normal Mice; [10],22.4 ± 0.57 g/dL
same,Hb Day 0,Normal Mice; [11],15.3 ± 0.51 g/dL
same,Hb Day 14,Normal Mice; [11],17.4 ± 0.62 g/dL
same,Hb Day 28,Normal Mice; [11],18.5 ± 0.74 g/dL
same,Hb Day 0,Normal Mice; [12],15.3 ± 0.50 g/dL
same,Hb Day 14,Normal Mice; [12],19.0 ± 0.40 g/dL
same,Hb Day 28,Normal Mice; [12],20.0 ± 0.48 g/dL
same,mean hemoglobin values vs Vehicle control group,"Normal Mice; Day 14 and Day 28, all groups receiving Comp-1, P<0.001",significantly different
